Tests used:
[1] = biological target: BCL-2 (Homo sapiens, UniProt P10415); assay: Isothermal titration calorimetry (ITC), BCL-2; conditions: binding to BCL-2
Experimental: The protein was dialyzed prior to use in 2 L of 25 mM HEPES, 150 mM NaCl, 5% glycerol (v/v), 0.5% MTG (v/v) at pH 7.4 for 3 hours at room temperature. The protein was dialyzed using a 3.5 K MWCO Slide-A-Lyzer™ cassette. The protein solution was recovered, spin-filtered through a […] frit. The filtered protein was quantified by UV absorbance at 280 nm using an extinction coefficient of 36440 M^-1cm^-1. 500 ml of dialysis buffer was retained (remainder used to rinse out SCHOT bottle) and degassed for a minimum of 30 mins under vacuum with constant stirring. […] The solutions were carefully matched to ensure same solvent and buffer conditions were present in both syringe and cell (this is to minimize heat of dilution effects). The final solution was the dialysis buffer plus 1% DMSO and 0.05% P20. The experiment was performed over 13 injections with stirring at 1000 rpm, gain setting low and at 25° C. Pure water was used in the reference cell. The first injection was 0.5 μl with a duration of 1 second with a gap of 150 seconds until the further 12 injections of 3.05 μl with a duration 6.1 seconds and a 240 second interval between injections. Data was analyzed using the vendor supplied software, PEAQ-ITC Analysis Software. The data model used was the single site model. The data shown is the average of 2 or 3 independent experiments.

[2] = system: RS4;11 xenograft; assay: RS4;11 xenograft efficacy; type: in vivo, mice; conditions: for Mean TV change: day 17, mean ± s.e.m.; for % T/C: day 17 post treatment start
Experimental: Experiments were performed in SCID/beige female mice from Charles River Laboratories, Massachusetts, USA. Animals, approximately 7-8 weeks of age at the start of the treatment were allowed to acclimate in animal facility with access to food and water ad libitum for 3 days prior to manipulation. Animals were handled in accordance with IACUC regulations and guidelines for experiments performed in the USA and with European and French regulation for the protection of vertebrate animals for experiments performed in France. Animal well-being and behavior, including grooming and ambulation were monitored at least once a day. General health of mice was monitored and mortality recorded daily. Any moribund animals were sacrificed. RS4;11 Acute Lymphoblastic Leukemia cell lines was obtained from ATCC. Toledo (Diffuse Large B-Cell Lymphoma) human cell lines were obtained internally through Bioresources and the Novartis-Cancer Cell Line Encyclopedia. Cells were free of Mycoplasma and murine viral contamination in the IMPACT VIII PCR assay panel ([…] laboratories INC, Westbrook, ME, USA). […] Cells were resuspended in a 1:1 mixture of cold DPBS (Dulbecco's Phosphate-Buffered Saline) and Matrigel^TM (Becton-Dickinson #354234) at a concentration of 3 × 10^7 cells/ml for Toledo cells, and of 1 × 10^7 cells/ml for RS4;11 cells. […] Body weights were recorded and tumors were measured with digital calipers twice to three times a week. Tumor volume was calculated using the formula: length × width^2/2. Percent changes in body weights was calculated as (BWcurrent - BWinitial)/(BWinitial) × 100. Data is presented as percent body weight change from the day of treatment initiation. When tumors reached approximately 200 mm^3 for efficacy studies or 300 mm^3 for pharmacodynamic studies, mice were randomized. […] Mice were treated via oral gavage at 10 ml/kg with the doses and schedules described in the figure. […] Regression = 100 × ΔT/Tinitial if ΔT < 0 where: T = mean tumor burden of the drug-treated group on the final day of the study; ΔT = mean tumor burden of the drug-treated group on the final day of the study - mean tumor burden of the drug-treated group on initial day of dosing; Tinitial = mean tumor burden of the drug-treated group on initial day of dosing; C = mean tumor burden of the control group on the final day of the study; and ΔC = mean tumor burden of the control group on the final day of the study - mean tumor burden of the control group on initial day of dosing. If the tumor volume was less than 14 mm^3 for more than 3 consecutive measurements, animals were considered in complete regression (CR).

[3] = biological target: T1, BFL-1 (Homo sapiens, UniProt Q16548); assay: Fluorescence polarization (FP) with Fluorescein-PUMA, BFL-1
T1 sequence (Q16548 1-175): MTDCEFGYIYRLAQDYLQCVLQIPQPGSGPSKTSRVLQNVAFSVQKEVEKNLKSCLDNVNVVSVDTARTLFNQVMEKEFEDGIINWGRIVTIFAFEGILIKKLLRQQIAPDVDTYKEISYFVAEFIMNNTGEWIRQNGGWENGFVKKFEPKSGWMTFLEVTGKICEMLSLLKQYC
Experimental: Final concentrations of MCL-1, BFL-1, BCL-2 and BCL-XL proteins were 10, 10, 10 and 20 nM respectively. The assay plates were incubated for 2 hours at room temperature and the FP was measured on a Synergy 2 reader (Ex. 528 nm, Em. 640 nm, Cut-off 510 nm). The binding of increasing doses of compound was expressed as a percentage reduction in mP compared to the window established between ‘DMSO only’ and ‘total inhibition’ control (30 μM PUMA). […] The KI was subsequently calculated as previously described [42].

[4] = 100 mg/kg oral daily for 7 days

Chain of BCL-2 (P10415 whole entry): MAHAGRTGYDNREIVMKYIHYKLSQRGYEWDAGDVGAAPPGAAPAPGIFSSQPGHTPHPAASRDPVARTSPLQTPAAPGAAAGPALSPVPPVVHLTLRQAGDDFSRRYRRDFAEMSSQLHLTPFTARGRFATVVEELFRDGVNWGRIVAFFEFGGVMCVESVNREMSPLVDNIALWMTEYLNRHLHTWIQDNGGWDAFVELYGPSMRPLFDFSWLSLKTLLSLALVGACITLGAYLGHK

N (sites), stoichiometry [1]: 1.1 sites | ∆H (enthalpy delta) [1]: –13.5 kcal/mol | binding to BFL-1 ([3]; FP): No significant binding | FP_BFL-1, % of inhibition at the maximal tested concentration ([3]; at 5E-06 M): 7.4%@5E-06
SMILES: O=C(c1cc(-c2cc3c(cc2C(=O)N2Cc4ccccc4C[C@H]2CN2CCOCC2)OCO3)n2c1CCCC2)N(c1ccccc1)c1ccc(O)cc1 [S55746]
Mean TV change ([2]; 25 mg/kg oral daily for 7 days): 782.38 ± 107.32 mm3 | % T/C ([2]; 25 mg/kg oral daily for 7 days): 67.1 % T/C | Mean TV change ([2]; 50 mg/kg oral daily for 7 days): 190.50 ± 76.72 mm3 | % T/C ([2]; 50 mg/kg oral daily for 7 days): 16.3 % T/C | complete regression [2, 4]: complete regression observed in all animals | Mean TV change [2, 4]: –98.13 ± 11.62 mm3
